Experimental data as given in BindingDB's records for patent US11440923 (2022).

molecular target: T1, Induced myeloid leukemia cell differentiation protein Mcl-1 [K194A,K197A,R201A] (Homo sapiens, UniProt Q07820, K194A/K197A/R201A); test: Protein-Protein Interaction Assay: MCL-1/Noxa BH3 Peptide (MCL-1 Assay)
T1 construct: gene MCL1
T1 sequence (Q07820 whole entry K194A/K197A/R201A, looked up): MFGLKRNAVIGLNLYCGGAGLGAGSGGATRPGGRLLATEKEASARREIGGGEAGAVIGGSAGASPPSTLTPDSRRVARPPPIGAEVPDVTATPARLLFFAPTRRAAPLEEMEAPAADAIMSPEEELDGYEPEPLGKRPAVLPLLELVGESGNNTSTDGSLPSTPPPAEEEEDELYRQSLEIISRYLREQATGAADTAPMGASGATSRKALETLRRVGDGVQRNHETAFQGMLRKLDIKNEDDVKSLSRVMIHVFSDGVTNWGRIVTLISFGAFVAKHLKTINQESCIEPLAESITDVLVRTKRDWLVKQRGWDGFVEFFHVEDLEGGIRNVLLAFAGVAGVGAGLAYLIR
Experimental: The dose-dependent inhibition by the compounds described in this invention of the interaction between MCL-1 and the BH3 domain of Noxa (both human) was determined using a steady state binding competition assay with time-resolved fluorescence energy transfer (TR-FRET) readout. […] The MBP-MCL-1 was purchased from Beryllium (Bedford, Mass., USA). […] The Noxa BH3-derived peptide can be obtained from e.g. Biosyntan (Berlin, Germany).

Row | Compound | IC50 [nM]
1 | Cc1c2c(nn1C)C(CCN1CCOCC1)OCCCCn1c(C(=O)O)c(CCCOc3cccc4cc(F)ccc34)c3ccc(F)c-2c31 (configuration not stated) [US11440923, Example 19] | 0.79
2 | CCc1c2c(nn1C)C(C(F)(F)F)OCCCCn1c(C(=O)O)c(CCCOc3cccc4ccccc34)c3ccc(Cl)c-2c31 (single isomer, unassigned; form 1) [US11440923, Example 33] | 2.1
3 | CCc1c2c(nn1C)C1CCCCN1CCCCn1c(C(=O)O)c(CCCOc3cccc4ccccc34)c3ccc(Cl)c-2c31 (racemic) [US11440923, Example 102] | 0.94
4 | Cc1c2c(nn1C)C(C1CC1)OCCCCn1c(C(=O)O)c(CCCOc3cccc4ccccc34)c3ccc(Cl)c-2c31 (single isomer, unassigned; form 2) [US11440923, Example 36] | 280
5 | CCc1c2c(nn1C)C(CCOC)OCCCCn1c(C(=O)O)c(CCCOc3cccc4cc(F)ccc34)c3ccc(Cl)c-2c31 (single isomer, unassigned; form 2) [US11440923, Example 43] | 88
6 | CCc1c2c(nn1C)C(CCC1CCOCC1)OCCCCn1c(C(=O)O)c(CCCOc3cccc4cc(F)ccc34)c3ccc(Cl)c-2c31 (racemic) [US11440923, Example 60] | 0.69
7 | CCc1c2c(nn1C)C(CCC(C)(C)O)OCCCCn1c(C(=O)O)c(CCCOc3cccc4cc(F)ccc34)c3ccc(Cl)c-2c31 (single isomer, unassigned; form 1) [US11440923, Example 75] | 0.37
8 | CCc1c2c(nn1C)[C@@H](CCN1CCOCC1)OCCCCn1c(C(=O)O)c(CCCOc3cccc4cc(F)ccc34)c3ccc(Cl)c-2c31 [US11440923, Example 48] | 3.6
9 | CCc1c2c(nn1C)C(CCN1CCOCC1)OCCCCn1c(C(=O)O)c(CCCOc3cccc4cc(F)ccc34)c3ccc(Cl)c-2c31 (single isomer, unassigned) [US11440923, Example 23] | 0.63
10 | CCC1OCCCCn2c(C(=O)O)c(CCCOc3cccc4ccccc34)c3ccc(Cl)c(c32)-c2c1nn(C)c2C (single isomer, unassigned; form 1) [US11440923, Example 29] | 1
11 | CCc1c2c(nn1C)C(CCC(C)(C)O)OCCCCn1c(C(=O)O)c(CCCOc3cccc4cc(F)ccc34)c3ccc(Cl)c-2c31 (single isomer, unassigned; form 2) [US11440923, Example 76] | 90
12 | CCc1c2c(nn1C)C(C1CC1)OCCCCn1c(C(=O)O)c(CCCOc3cccc4cc(F)ccc34)c3ccc(Cl)c-2c31 (single isomer, unassigned; form 1) [US11440923, Example 39] | 0.72
13 | Cc1c2c(nn1C)C(C1CC1)OCCCCn1c(C(=O)O)c(CCCOc3cccc4ccccc34)c3ccc(Cl)c-2c31 (single isomer, unassigned; form 1) [US11440923, Example 35] | 0.73
14 | CCc1c2c(nn1C)C(CC(C)(C)O)OCCCCn1c(C(=O)O)c(CCCOc3cccc4cc(F)ccc34)c3ccc(Cl)c-2c31 (single isomer, unassigned; form 1) [US11440923, Example 53] | 0.41
15 | CCc1c2c(nn1C)C(CCC1CCOCC1)OCCCCn1c(C(=O)O)c(CCCOc3cccc4cc(F)ccc34)c3ccc(Cl)c-2c31 (single isomer, unassigned) [US11440923, Example 63] | 0.88
16 | CCc1c2c(nn1C)C(CCN1CC(F)(F)C1)OCCCCn1c(C(=O)O)c(CCCOc3cccc4cc(F)ccc34)c3ccc(Cl)c-2c31 (single isomer, unassigned) [US11440923, Example 78] | 0.42
17 | CCc1c2c(nn1C)C(C(F)(F)F)OCCCCn1c(C(=O)O)c(CCCOc3cccc4ccccc34)c3ccc(Cl)c-2c31 (single isomer, unassigned; form 2) [US11440923, Example 34] | 370
18 | CCc1c2c(nn1C)C(CC(C)(C)O)OCCCCn1c(C(=O)O)c(CCCOc3cccc4cc(F)ccc34)c3ccc(Cl)c-2c31 (single isomer, unassigned; form 2) [US11440923, Example 54] | 47
19 | Cc1c2c(nn1C)C(CCN1CCOCC1)OCCCCn1c(C(=O)O)c(CCCOc3cccc4cc(F)ccc34)c3ccc(Cl)c-2c31 (configuration not stated) [US11440923, Example 16] | 1.2
20 | CCc1c2c(nn1C)C(C1CC1)OCCCCn1c(C(=O)O)c(CCCOc3cccc4cc(F)ccc34)c3ccc(Cl)c-2c31 (single isomer, unassigned; form 2) [US11440923, Example 40] | 48
21 | CCc1c2c(nn1C)C(CCOC)OCCCCn1c(C(=O)O)c(CCCOc3cccc4cc(F)ccc34)c3ccc(Cl)c-2c31 (single isomer, unassigned; form 1) [US11440923, Example 42] | 0.33
22 | CCC1OCCCCn2c(C(=O)O)c(CCCOc3cccc4ccccc34)c3ccc(Cl)c(c32)-c2c1nn(C)c2C (single isomer, unassigned; form 2) [US11440923, Example 30] | 200
